Source: patent publication USRE47475E1, “Selective agents for pain suppression” (WiSys Technology Foundation, Inc., priority 2002, dated 2019)
Like-named read-outs stand apart in the source and are kept apart here.

Legend:
rhesus monkeys = assay: conflict model of anxiolytic activity which also measures sedation; format: in vivo; details: for anxiolytic effect (conflict model): intravenously in propylene glycol/water
Protocol: The data in FIGS. 21A-21F reflect the ability of the compounds or drugs to exert an anxioyic effect in rhesus monkeys (J. Rowlett, J. M. Cook et al., unpublished results) when given intravenously in propylene glycol/water solution. This is the conflict model of anxiolytic activity which also measures sedation. […] In FIG. 21B, SH-053-2′F (JY-XHE-053) is anxiolytic at a dose of greater than 0.13 mg/kg, but exerts only some slight sedation at doses greater than 1.2 mg/kg (responses decrease). In FIG. 21C it is clear the S-enantiomer of SH-053-2′F—S—CH3 is anxiolytic with no sedation up to 10-18 mg/kg, which is the highest dose tested.

[1] = tested on: neuropathic pain after CCI of the sciatic nerve; assay: chronic constriction injury (CCI) model, mechanical sensitization (von Frey filaments); format: in vivo, mice; details: for analgesic effects in the chronic constriction injury model of neuropathic pain: mouse, in vivo
Protocol: In addition, the pro- or antinociceptive effects of the compounds of the present invention are analyzed in the chronic constriction injury (CCI) model. The GABAA receptor subunit selective test compounds of the present invention are analysed in the CCI model in 7-8-week-old C57BL/6 mice. See Bennett, G. J. & Xie, Y. K. A peripheral mononeuropathy in rat that produces disorders of pain sensation like those seen in man. […] Seven to eight week old mice are anesthetized with isofluran. Unilateral constriction injury of the left sciatic nerve just proximal to the trifurcation is performed with three loose ligatures. In sham-operated animals the sciatic nerve is exposed and the connective tissue is freed, but no ligatures are applied. […] Heat hyperalgesia, cold allodynia and mechanical sensitization are assessed 7-9 days after surgery. Mechanical sensitivity is assessed with electronic von Frey filaments (IITC).
Pain studies—Neuropathic pain: HZ166 and gabapentin were analyzed in the chronic constriction injury (CCI) model. Unilateral constriction injury of the left sciatic nerve just proximal to the trifurcation was performed as described previously (Bennett and Xie, 1988). Anesthesia was induced and maintained by 2% isoflurane, combined with oxygen (30%). The sciatic nerve was exposed at the mid-thigh level proximal to the sciatic trifurcation by blunt dissection through the biceps femoris muscle. […] of nerve were freed of adhering tissue and three chromic gut ligatures (4/0) (Ethicon) were loosely put around the nerve with about 1 mm spacing. The ligatures were tied until they elicited a brief twitch in the hindlimb. The surgical wound was closed in layers. Heat hyperalgesia and mechanical sensitization were assessed 7-16 days after surgery.
Pain Studies—Mechanical sensitization: Mechanical sensitivity was assessed with dynamic von Frey filaments (IITC, Woodland Hills, Calif.). 4-5 measurements were made for each time point and animal and averaged. Measurements of paw withdrawal thresholds of the injured paw and of the contralateral paw were made alternately.
Statistical Analysis: For all different doses and vehicle, baseline paw withdrawal thresholds/latencies on day 7 after nerve ligation or on day 2 after zymosan A injection were subtracted from all later withdrawal thresholds and the area under the curve (AUC) was calculated. Drug effects were expressed as percent maximum possible effect (MPE) calculated from comparisons of paw withdrawal latencies or thresholds obtained prior to surgery or inflammation and before and after drug treatment. […] Unless otherwise indicated, statistical comparisons were made with one-way analysis of variance (ANOVA) followed by Scheffe's post hoc test. P values<0.05 were considered significant.

[2] = tested on: Sciatic Ligation neuropathic pain; assay: T23 partial ligation of the sciatic nerve (mechanical allodynia); format: in vivo, rats; details: dose 35.5 (HZ-166), 18 (JY-XHE-053), 1 (XLI-JY-DMH) mg/kg; TPE 2 hr
Protocol: Neuropathic pain. The pro- or antinociceptive effects of the compounds of the present invention are analyzed in two manners. […] Sterile technique will be used throughout the surgery. The upper thigh will be shaved and wiped off with ethanol and betadine. A small incision will then be made in the skin. The underlying muscle of the upper thigh will be separated and the sciatic nerve exposed. The nerve is separated from the surrounding connective tissue and slightly elevated by a pair of fine, curved forceps. Approximately ⅓ to ½ of the nerve is tied off by passing a needle (7.0) and nylon suture through the nerve. The muscle and skin incision are closed off separately with 5.0 suture and the animals kept warm until they have recovered from the anesthesia. This procedure is routinely done on the right side (ipsilateral) while a sham surgery is performed on the left hind leg (contralateral). The latter involves a similar procedure with the exception that the sciatic nerve on this side is only exposed. The rats will be closely monitored daily for the development of infection or untoward effects of the surgery in which case the animals will be immediately euthanized
After an appropriate time for recovery (7 days) the animals will be tested for the development of mechanical allodynia (abnormal response to a non-noxious stimulus). The animals are each put in a bottomless plexiglass box placed on a wire mesh (¼″) platform. After 30-60 minutes in which to acclimate, a baseline mechanical sensitivity is determined. This procedure is done by applying a series of calibrated Von Frey fibres perpendicularly to the plantar surface of each hind paw and holding it there for about 6 secs with enough force to slightly bend the fibre. After a positive response (withdrawal of the foot) is noted a weaker fibre is applied. This is repeated until a 50% threshold for withdrawal can be determined
The allodynic threshold is then redetermined after intraperitoneal administration of an investigational AED. Testing will be conducted at the time-to-peak effect of the AED as determined in the acute seizure model.

[3] = tested on: Formalin Pain (mouse, i.p.); assay: T22 formalin test (chemically induced pain); format: in vivo
Protocol: This elicits a distinct bi-phasic behavioral profile in response to the formalin injection characterized by licking of the affected paw, and the number of licks is measured as a proxy for perceived pain. The first (acute) phase is thought to correspond to the direct stimulation of peripheral fibers while the second (inflammatory) phase is caused by the release of inflammatory mediators from the damaged tissue and nerve endings. Thus, this model is ideally suited for efficacy of an investigational AED against the acute and chronic hyper-responsive neuronal discharges following activation of peripheral nerve fibers.
The results of the formalin test are given both as raw data (“Response”) and in an aggregate, analyzed form (“Analysis”). In the Response section, each Trial involves sixteen animals, eight controls given an i.p. injection of vehicle and eight given the compound at a specified dose. Thus, for multiple doses of the compound, there will also be multiple control groups. The data recorded for each animal is the amount of time(s) spent licking the affected hind paw in a two minute period. These two minute periods occur at five minute intervals and continue for 45 minutes. […] From this plot, we can then determine the area under the curve (AUC) for each animal during both the acute and inflammatory stages. The AUC for each phase is shown in the analysis section of the data sheet for both control and drug-treated animals The AUC for each drug-treated animal is compared to the average result from the control group, yielding an average percent of control (reported with the SEM and p value).

[4] = target: T1, GABAA/α2 (α2β3γ2 GABAA receptor) (Homo sapiens, UniProt P18507+P47869); assay: competitive binding assay with [3H]flunitrazepam
T1 construct: expressed in transfected cells
Protocol: (§1) Membranes were harvested with a Brandel cell harvester followed by three ice-cold washes onto polyethyleneimine-pretreated (0.3%) Whatman GF/C filters. Filters were dried overnight and then soaked in Ecoscint, a liquid scintillation cocktail (National Diagnostics; Atlanta, Ga.). Bound radioactivity was quantified by liquid scintillation counting. Membrane protein concentrations were determined using an assay kit from Bio-Rad (Hercules, Calif.) with bovine serum albumin as the standard.
as §1, with “The GABAA subunit selectivity of several compounds prepared as described above were determined using competitive binding assays. […] Membranes” for “Membranes”

[5] = target: T2, GABAA/α3 (α3β3γ2 GABAA receptor) (Homo sapiens, UniProt P18507+P34903); assay: competitive binding assay with [3H]flunitrazepam
T2 construct: expressed in transfected cells
Protocol: as §1
as §1, with “The GABAA subunit selectivity of several compounds prepared as described above were determined using competitive binding assays. […] Membranes” for “Membranes”

[6] = target: T3, GABAA/α1 (α1β3γ2 GABAA receptor) (Homo sapiens, UniProt P14867+P18507); assay: competitive binding assay with [3H]flunitrazepam
T3 construct: expressed in transfected cells
Protocol: as §1
as §1, with “The GABAA subunit selectivity of several compounds prepared as described above were determined using competitive binding assays. […] Membranes” for “Membranes”

[7] = target: T4, GABAA/α5 (α5β3γ2 GABAA receptor) (Homo sapiens, UniProt P18507+P31644); assay: competitive binding assay with [3H]flunitrazepam
T4 construct: expressed in transfected cells
Protocol: as §1
as §1, with “The GABAA subunit selectivity of several compounds prepared as described above were determined using competitive binding assays. […] Membranes” for “Membranes”

CNC1=Nc2ccc(C#C[Si](C)(C)C)cc2C(c2ccccc2)=NC1
melting point: 210 to 211 °C

C#Cc1ccc2c(c1)C(c1ccccc1F)=NC(C)c1c(C(=O)OCC)ncn1-2 (single isomer, unassigned) [SH-053-2′F-R-CH3, 8-Ethynyl-6-(2-fluorophenyl)-4-methyl-4H-2,5,10b-triaza-benzo[e]azulene-3-carboxylic acid ethyl ester]
sedative activity (conflict model) (rhesus monkeys; intravenously): not sedating
anxiolytic effect (conflict model) (rhesus monkeys): only a weak anxiolytic

CCOC(=O)c1ncn2c1CN=C(c1ccccc1)c1cc(Cl)ccc1-2
melting point: 174 to 175 °C

CCOC(=O)c1ncn2c1CN(C)C(=O)c1cc(F)ccc1-2 [Flumazenil, flumazenil, reference compound]
AUC of mechanical PWT, HZ166 followed by flumazenil ([1]; HZ166 16 mg/kg i.p., flumazenil 10 mg/kg i.p. 45 min later, n=6): 0.54 ± 0.25 g·h
effect on the antihyperalgesic effect of HZ166 ([1]; flumazenil 10 mg/kg i.p., HZ166 16 mg/kg): almost completely reversed

CN1C(=O)CN=C(c2ccccn2)c2cc(C#C[Si](C)(C)C)ccc21
melting point: 194 to 195 °C

CCOC(=O)c1ncn2c1CN=C(c1ccccn1)c1cc(C#C[Si](C)(C)C)ccc1-2
melting point: 205 to 206 °C

C#Cc1ccc2c(c1)C(c1ccccc1)=NCc1c(C(=O)OCC)ncn1-2 [XHE-II-053, Ethyl 8-acetylenyl-6-phenyl-4H-benzo[f]imidazo[1,5-a][1,4]diazepine-3-carboxylate]
analgesic effect, mechanical sensitivity (von Frey) in CCI model ([1]; 10 mg/kg i.p.): significantly analgesic
analgesic effects in the chronic constriction injury model of neuropathic pain [1]: analgesic effects
sedative activity (conflict model) (rhesus monkeys; intravenously): no sedative activity
anxiolytic effect (conflict model) (rhesus monkeys): anxiolytic

C[Si](C)(C)C#Cc1ccc2c(c1)C(c1ccccn1)=NCC(=O)N2
melting point: 242 to 243 °C

O=C(OCC(Cl)(Cl)Cl)c1ncn2c1CN=C(c1ccccc1)c1cc(Br)ccc1-2
melting point: 113 to 116 °C

C#Cc1ccc2c(c1)C(c1ccccc1F)=NCc1c(C(=O)OCC)ncn1-2 [JY-XHE-053, 8-Acetyleno-6-(2′-fluorophenyl)-4H-benzo[f]imidazo[1,5-a][1,4]diazepine-3-carboxylate]
Change (% of Control) ± SEM, T23 Sciatic Ligation [2]: 132 ± 7 % of Control
Significance, T23 Sciatic Ligation [2]: yes
protection at the acute phase of chemically induced pain ([3]; formalin test, acute phase): insignificant
Change (% of Control) ± SEM, T22 Formalin Pain, Acute ([3]; mouse, i.p., acute phase, dose 16 (HZ-166), 10 (JY-XHE-053), 1 (XLI-JY-DMH) mg/kg): 98.41 % of Control
Change (% of Control) ± SEM, T22 Formalin Pain, inflammatory ([3]; mouse, i.p., inflammatory phase, dose 16 (HZ-166), 10 (JY-XHE-053), 1 (XLI-JY-DMH) mg/kg): 84.58 % of Control
Ki ([4]; Table 3, read-out: Binding Affinity at GABAA/α2): 0.0123 µM
Ki ([5]; Table 3, read-out: Binding Affinity at GABAA/α3): 0.0349 µM
Ki ([6]; Table 3, read-out: Binding Affinity at GABAA/α1): 0.022 µM
Ki ([7]; Table 3, read-out: Binding Affinity at GABAA/α5): 0.000671 µM
analgesic effect, mechanical sensitivity (von Frey) in CCI model ([1]; 8 mg/kg and 30 mg/kg i.p.): significant analgesic effect
analgesic effects in the chronic constriction injury model of neuropathic pain [1]: analgesic effects
dose at which anxiolytic (rhesus monkeys; intravenously): greater than 0.13 mg/kg

C#Cc1ccc2c(c1)C(c1cccs1)=NCc1c(C(=O)OCC)ncn1-2 [JC-221, Ethyl 8-acetyleno-6-(2′-thienyl)-4H-benzo[f]imidazo[1,5-a][1,4]diazepine-3-carboxylate]
Ki ([7]; Binding Affinity at GABAA/α5, Table 3): 0.0145 µM

C#Cc1ccc2c(c1)C(c1ccccn1)=NC(C)c1c(C(=O)OCC)ncn1-2 (stereo not drawn) [SH-053-2′N-S-CH3, 8-Ethynyl-4-methyl-6-pyridin-2-yl-4H-2,5,10b-triaza-benzo[e]azulene-3-carboxylic acid ethyl ester]
Ki ([4]; Binding Affinity at GABAA/α2, Table 4, stereoisomers): 2.33 µM
Ki ([5]; Binding Affinity at GABAA/α3, Table 4, stereoisomers): 2.65 µM
Ki ([6]; Binding Affinity at GABAA/α1, Table 4, stereoisomers): 6.95 µM
Ki ([7]; Binding Affinity at GABAA/α5, Table 4, stereoisomers): 0.744 µM

C#Cc1ccc2c(c1)C(c1ccccc1F)=NC(C)c1c(C(=O)OCC)ncn1-2 (single isomer, unassigned) [SH-053-2′F-S-CH3, 8-Ethynyl-6-(2-fluorophenyl)-4-methyl-4H-2,5,10b-triazabenzo[e]azulene-3-carboxylic acid ethyl ester]
no sedation up to dose (rhesus monkeys; conflict model): 10 to 18 mg/kg
anxiolytic effect (conflict model) (rhesus monkeys): anxiolytic

C[Si](C)(C)C#Cc1ccc2c(c1)C(c1ccccc1)=NCc1c(C(=O)OCC(F)(F)F)ncn1-2
melting point: 107 to 110 °C

C#Cc1ccc2c(c1)C(c1ccccn1)=NCC(=O)N2C
melting point: 190 to 191 °C

C#Cc1ccc2c(c1)C(c1ccccc1)=NCc1c(C(=O)OCC(F)(F)F)ncn1-2 [DM-II-20, Trifluoroethyl 8-acetylenyl-6-phenyl-4H-benzo[f]imidazo[1,5-a][1,4]diaze-pine-3-carboxylate]
melting point: 188 to 190 °C
